Measured values reported in US7605168B2 (Plexxikon, Inc., priority 2004, dated 2009).

Tests used:
[1] = molecular target: T1, PDE4B: catalytic domain of human PDE4B from S152-S528 (Homo sapiens, UniProt Q07343); assay: PDE4 IC50 determination by Scintillation Proximity Assay (SPA), PDE4B catalytic domain; format: biochemical; conditions: [3H]cAMP SPA, 30 min at 30° C.
T1 construct: The catalytic domain of human PDE4B from S152-S528; His6 (N, cleaved yes); thrombin cleavage site (N, cleaved yes); made in house; host or cells: E. coli BL21 (DE3) RIL
T1 sequence (Q07343 324-700): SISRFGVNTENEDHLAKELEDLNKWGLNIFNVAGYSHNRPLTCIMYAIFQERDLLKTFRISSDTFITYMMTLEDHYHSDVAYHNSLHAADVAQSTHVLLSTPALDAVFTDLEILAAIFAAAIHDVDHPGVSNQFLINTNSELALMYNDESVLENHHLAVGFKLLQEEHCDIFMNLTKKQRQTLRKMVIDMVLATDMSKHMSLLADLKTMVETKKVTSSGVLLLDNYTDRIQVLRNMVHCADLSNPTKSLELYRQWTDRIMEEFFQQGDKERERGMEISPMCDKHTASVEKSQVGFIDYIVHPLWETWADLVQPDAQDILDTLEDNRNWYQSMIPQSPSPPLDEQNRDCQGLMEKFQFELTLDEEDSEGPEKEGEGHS
How it was run: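 Human PDE4B catalytic domain (80 ng/ml) hydrolysed [3H]cAMP in 50 mM Tris pH 7.5, 8.3 mM MgCl, 1.7 mM EGTA, 0.01% BSA for 30 min at 30 °C. Reaction was stopped with yttrium silicate SPA beads in 18 mM ZnSO4, and bound [3H]AMP was counted by scintillation. IC50 came from non-linear regression.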

[2] = molecular target: T2, PDE4B2: full-length human PDE4B2 isozyme (Homo sapiens, UniProt Q07343); assay: PDE4 IC50 determination by Scintillation Proximity Assay (SPA), full-length PDE4B2; format: biochemical; conditions: cell lysate, [3H]cAMP SPA
T2 construct: made in house; host or cells: baculovirus infected insect cells (pFastBacHT)
T2 sequence (Q07343 with tags, fused parts or gaps isoform Q07343-2): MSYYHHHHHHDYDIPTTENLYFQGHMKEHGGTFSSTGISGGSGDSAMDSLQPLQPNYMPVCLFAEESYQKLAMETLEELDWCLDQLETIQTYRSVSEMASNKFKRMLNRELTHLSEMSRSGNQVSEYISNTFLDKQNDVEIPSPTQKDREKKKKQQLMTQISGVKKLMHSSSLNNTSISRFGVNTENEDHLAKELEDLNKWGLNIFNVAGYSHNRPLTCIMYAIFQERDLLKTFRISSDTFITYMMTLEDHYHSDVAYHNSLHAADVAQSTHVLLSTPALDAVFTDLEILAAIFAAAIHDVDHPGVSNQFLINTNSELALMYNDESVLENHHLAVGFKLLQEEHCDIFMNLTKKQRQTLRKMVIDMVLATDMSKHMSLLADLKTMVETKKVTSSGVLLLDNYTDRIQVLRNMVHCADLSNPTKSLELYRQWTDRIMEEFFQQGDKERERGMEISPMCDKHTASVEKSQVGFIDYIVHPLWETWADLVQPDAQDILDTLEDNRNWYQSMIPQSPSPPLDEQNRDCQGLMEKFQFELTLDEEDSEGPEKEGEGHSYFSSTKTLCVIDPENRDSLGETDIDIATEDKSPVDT
How it was run: (§1)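 Unpurified enzyme from cell lysates (PDE4B2 2.5 μl, PDE4D5 0.083 μl of 50% glycerol stock/ml) hydrolysing [3H]cAMP in 50 mM Tris pH 7.5, 8.3 mM MgCl, 1.7 mM EGTA, 0.01% BSA, 30 min at 30 °C. Stopped with yttrium silicate SPA beads in 18 mM ZnSO4; bead-bound [3H]AMP counted. IC50 by non-linear regression.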

[3] = molecular target: T3, PDE4D5: full-length human PDE4D5 isozyme (Homo sapiens, UniProt Q08499); assay: PDE4 IC50 determination by Scintillation Proximity Assay (SPA), full-length PDE4D5; format: biochemical; conditions: cell lysate, [3H]cAMP SPA
T3 construct: made in house; host or cells: baculovirus infected insect cells (pFastBacHT)
T3 sequence (Q08499 with tags, fused parts or gaps isoform Q08499-6): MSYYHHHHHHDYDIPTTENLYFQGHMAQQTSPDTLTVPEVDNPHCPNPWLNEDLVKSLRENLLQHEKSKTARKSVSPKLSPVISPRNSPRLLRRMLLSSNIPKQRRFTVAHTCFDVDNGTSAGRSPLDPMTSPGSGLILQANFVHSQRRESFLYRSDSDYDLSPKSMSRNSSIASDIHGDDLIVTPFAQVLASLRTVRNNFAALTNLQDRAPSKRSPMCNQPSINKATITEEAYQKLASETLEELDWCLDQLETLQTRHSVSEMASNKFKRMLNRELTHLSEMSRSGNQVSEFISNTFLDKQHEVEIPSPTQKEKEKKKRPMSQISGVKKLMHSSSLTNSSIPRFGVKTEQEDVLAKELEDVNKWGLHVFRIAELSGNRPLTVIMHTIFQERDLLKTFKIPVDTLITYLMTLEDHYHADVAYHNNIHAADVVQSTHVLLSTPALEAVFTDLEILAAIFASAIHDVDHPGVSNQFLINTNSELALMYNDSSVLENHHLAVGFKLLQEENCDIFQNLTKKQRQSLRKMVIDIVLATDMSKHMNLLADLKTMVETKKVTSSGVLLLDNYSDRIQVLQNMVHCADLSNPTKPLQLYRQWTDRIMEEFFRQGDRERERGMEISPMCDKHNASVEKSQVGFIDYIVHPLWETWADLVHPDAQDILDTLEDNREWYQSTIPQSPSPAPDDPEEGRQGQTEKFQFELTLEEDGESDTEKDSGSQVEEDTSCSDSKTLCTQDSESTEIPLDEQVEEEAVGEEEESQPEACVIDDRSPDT
How it was run: as §1

[4] = tested on: TNF-α release from whole blood cultures stimulated with LPS; assay: IC50 by TNF alpha production upon stimulation of whole blood cultures with LPS; format: cell-based; conditions: human whole blood (buffy coat) culture, 100 ng/ml LPS, 4 hours; read-out: h TNFα IC50
Method: Compounds were assayed to generate IC50 numbers based on the inhibition of TNF-α release from whole blood cultures, using the following assay protocol (see Table 5 for compounds tested and results). Inhibition of PDE4B results in the inhibition of TNF-α release by whole blood cultures stimulated with lipopolysaccharide (LPS). The measurement of TNF-α release was used to assess compounds as PDE4B inhibitors.
Compounds were provided in DMSO at 20 mM and 2 μl per well was added to one row of a dilution plate. Added 98 μl of RPMI 1640 media with 2.5% heat inactivated FBS to each well containing compound. The same media with 2% DMSO was prepared and 60 μl was added to each of the empty wells in the dilution plate. The compound was serially diluted 1:3 (30 μl to 60 μl of media) for a total of 8 concentrations per compound. Wells were also prepared with 50 μM roflumilast and piclamilast as 100% inhibition controls, and 2% DMSO in media was used as 0% inhibition control. A 20 μl aliquot of each sample was transferred to an assay plate in duplicate.
Human buffy coat was obtained from the Stanford Medical School Blood Center and diluted with 7 volumes of RPMI 1640 media with 1% penicillin/streptomycin and 2.5% heat inactivated FBS. A 160 μl aliquot of the diluted blood was added to each well of the assay plates, mixed and incubated for 1 hour at 37° C. in 5% CO2. LPS (Sigma catalog number L2637) that had been diluted to 1 mg/ml in PBS and stored as 20 μl aliquots at −20° C. was thawed and diluted 1000× to 1 μg/ml. A 20 μl aliquot of this was added to each sample (final concentration 100 ng/ml LPS) after the 1 hour incubation. A background sample was prepared without addition of LPS as well. The samples were mixed on a shaker for one minute at 900 RPM and incubated for 4 hours at 37° C. in 5% CO2. The plates were then put on a shaker for one minute at 900 RPM, followed by centrifuging at 100×g for 10 minutes, deceleration setting of 5. The top 75 μl of supernatant was carefully pipetted to a new plate and frozen at −20° C.
A 50 μl aliquot of incubation buffer (Biosource International Immunoassay Kit:Human TNF-α catalog number KHC3011) was added to each well of a plate coated with monoclonal antibody specific for hTNF-α (Biosource kit). The supernatant blood samples were thawed and a 50 μl aliquot along with 50 μl of diluent buffer (Biosource kit) were added to incubation buffer and the samples were incubated for 2 hours at room temperature. The samples were washed 4 times with 300 μl/well wash buffer (Biosource kit). A 100 μl aliquot of biotinylated anti-TNFalpha (Biosource kit) was added and the samples incubated for 1 hour at room temperature. The samples were washed 4 times with 300 μl/well wash buffer. A 100 μl aliquot of Streptavidin-HRP solution (BioSource kit) was added and the samples incubated for 30 minutes at room temperature. The samples were washed 4 times with 300 μl/well wash buffer. A 100 μl aliquot of Chromagen (Biosource kit) was added and the samples incubated in the dark for 30 minutes. A 100 μl aliquot of stop solution (2N H2SO4) was added to each sample and samples were read at 450 nm on a WallacVictor for 0.1 sec/well.

IC50 [1]	IC50 [2]	IC50 [3]	IC50 [4]	Structure (SMILES)
< 10 µM	< 10 µM	< 10 µM	≤ 10 µM	COc1ccc(-c2cn(C(=O)c3ccccc3OC)c3ncccc23)cc1OC [Compound 68, [3-(3,4-Dimethoxy-phenyl)-pyrrolo[2,3-b]pyridin-1-yl]-(2-methoxyphenyl)-methanone]
< 10 µM	< 10 µM	< 10 µM	≤ 10 µM	COc1ccc(-c2cn(S(=O)(=O)c3ccc(-c4cnco4)cc3)c3ncccc23)cc1OC [Compound 70, 3-(3,4-Dimethoxy-phenyl)-1-(4-oxazol-5-yl-benzenesulfonyl)-1H-pyrrolo[2,3-b]pyridine]
< 10 µM	< 10 µM	< 10 µM	≤ 10 µM	COc1ccc(-c2cn(S(=O)(=O)c3cccc(-c4cnco4)c3)c3ncccc23)cc1OC [Compound 72, 3-(3,4-Dimethoxy-phenyl)-1-(3-oxazol-5-yl-benzenesulfonyl)-1H-pyrrolo[2,3-b]pyridine]
< 10 µM	< 10 µM	< 10 µM	≤ 10 µM	COc1ccc(-c2cn(S(=O)(=O)c3ccc(-c4nnc(C)o4)cc3)c3ncccc23)cc1OC [Compound 73, 3-(3,4-Dimethoxy-phenyl)-1-[4-(5-methyl-[1,3,4]oxadiazol-2-yl)-benzenesulfonyl]-1H-pyrrolo[2,3-b]pyridine]
< 10 µM	< 10 µM	< 10 µM	≤ 10 µM	COc1ccc(-c2cn(Cc3ccccc3CS(=O)(=O)c3ccccc3)c3ncccc23)cc1OC [Compound 74, 1-(2-Benzenesulfonylmethyl-benzyl)-3-(3,4-dimethoxy-phenyl)-1H-pyrrolo[2,3-b]pyridine]
< 10 µM	< 10 µM	< 10 µM	≤ 10 µM	COc1ccc(-c2cn(Cc3ccccc3)c3ncccc23)cc1OC [Compound 75, 1-Benzyl-3-(3,4-dimethoxy-phenyl)-1H-pyrrolo[2,3-b]pyridine]
< 10 µM	< 10 µM	< 10 µM	≤ 10 µM	COc1ccc(-c2cn(Cc3c(C)ccc4ccccc34)c3ncccc23)cc1OC [Compound 76, 3-(3,4-Dimethoxy-phenyl)-1-(2-methyl-naphthalen-1-ylmethyl)-1H-pyrrolo[2,3-b]pyridine]
< 10 µM	< 10 µM	< 10 µM	≤ 10 µM	COc1ccc(-c2cn(Cc3ccc(C#N)cc3)c3ncccc23)cc1OC [Compound 77, 4-[3-(3,4-Dimethoxy-phenyl)-pyrrolo[2,3-b]pyridin-1-ylmethyl]-benzonitrile]
< 10 µM	< 10 µM	< 10 µM	≤ 10 µM	COc1ccc(-c2cn(Cc3ccccc3-c3ccccc3)c3ncccc23)cc1OC [Compound 78, 1-Biphenyl-2-ylmethyl-3-(3,4-dimethoxy-phenyl)-1H-pyrrolo[2,3-b]pyridine]
< 10 µM	< 10 µM	< 10 µM	≤ 10 µM	COc1ccc(-c2cn(Cc3cccc(C(F)(F)F)c3)c3ncccc23)cc1OC [Compound 79, 3-(3,4-Dimethoxy-phenyl)-1-(3-trifluoromethyl-benzyl)-1H-pyrrolo[2,3-b]pyridine]
< 10 µM	< 10 µM	< 10 µM	> 10 µM	CCOc1ccc2ccccc2c1C(=O)n1ccc2cc(-c3ccc(OC)c(OC)c3)cnc21 [Compound 80, [5-(3,4-Dimethoxy-phenyl)-pyrrolo[2,3-b]pyridin-1-yl]-(2-ethoxy-naphthalen-1-yl)-methanone]
< 10 µM	< 10 µM	< 10 µM	≤ 10 µM	COc1ccc(-c2cnc3[nH]ccc3c2)cc1OC [Compound 82, 5-(3,4-Dimethoxy-phenyl)-1H-pyrrolo[2,3-b]pyridine]
< 10 µM	< 10 µM	< 10 µM	> 10 µM	COc1ccc(-c2cn(S(=O)(=O)c3csc4ccccc34)c3ncccc23)cc1OC [Compound 91, 1-(Benzo[b]thiophene-3-sulfonyl)-3-(3,4-dimethoxy-phenyl)-1H-pyrrolo[2,3-b]pyridine]
